Assays:
Test in all cases: Bliss excess, mean over the matrix (fraction); higher = more synergy
Hey (Ovarian Carcinoma) = tested on: Hey (Ovarian Carcinoma)
In short: (§1)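 Cell lines grown in DMEM/F12 or RPMI with 10% FBS were plated in 1536-well plates and held 24 hours at 37°C, 5% CO2 before 72 hours of exposure to two-drug dose matrices, with DMSO typically at 0.2%. CellTiter-Glo 2.0 luminescence gave viability, which was converted to inhibition. Vehicle wells were set to 0 and blank wells to 1. Combination Emax is the second-highest inhibition in the matrix, and Bliss excess is the observed combination effect minus the expected EA + EB − EA·EB, where EA and EB are the single-agent effects.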

[1] = tested on: ME-180 (Cervical Carcinoma)
In short: as §1

[2] = tested on: NCI-H522 (Lung Adenocarcinoma)
In short: as §1

[3] = tested on: NCI-H650 (Lung Adenocarcinoma)
In short: as §1

Row | Structure (SMILES) | Bliss excess (Hey (Ovarian Carcinoma)) | Bliss excess [1] | Bliss excess [2] | Bliss excess [3]
1 | CC(=O)c1c(C)c2cnc(Nc3ccc(N4CCNCC4)cn3)nc2n(C2CCCC2)c1=O [Palbociclib] + CC1(C)CCC(CN2CCN(c3ccc(C(=O)NS(=O)(=O)c4ccc(NCC5CCOCC5)c([N+](=O)[O-])c4)c(Oc4cnc5[nH]ccc5c4)c3)CC2)=C(c2ccc(Cl)cc2)C1 [Venetoclax] (first compound max 10 µM, 7x7, partner max 1 µM) | 0.0511 | -0.0622 | -0.0428 | -0.0508
2 | COc1cccc(OCCCN)c1-c1cc(Nc2cnc(C#N)cn2)n[nH]1 [Prexasertib] + CN(C)CCCOc1ccc(-c2ccc3ncc4c(c3c2)n(C2CCOCC2)c(=O)n4C)cn1 [AZD0156] (first compound max 1 µM, 7x7, partner max 1 µM) | -0.0098 | -0.0255 | -0.0189 | -0.008
3 | Cn1cnc2c(F)c(Nc3ccc(Br)cc3Cl)c(C(=O)NOCCO)cc21 [Selumetinib] + CCN(CCO)CCCOc1ccc2c(Nc3cc(CC(=O)Nc4cccc(F)c4)[nH]n3)ncnc2c1 [AZD2811] (first compound max 10 µM, 7x7, partner max 1 µM) | -0.0165 | -0.0346 | -0.0359 | 0.0056
4 | NC1(C(=O)N[C@@H](CCO)c2ccc(Cl)cc2)CCN(c2ncnc3[nH]ccc23)CC1 [Capivasertib] + CC(C)n1c(=O)n(C)c2cnc3cc(F)c(-c4ccc(OCCCN5CCCCC5)nc4)cc3c21 [AZD1390] (first compound max 10 µM, 7x7, partner max 0.3 µM) | -0.0766 | -0.033 | -0.0502 | -0.0899
5 | COc1nnc2ccc(N3CCC(c4ccc(OCCN5CCN(C)C(=O)[C@H]5C)cc4)CC3)nn12 [AZD5153] + CCN(CCO)CCCOc1ccc2c(Nc3cc(CC(=O)Nc4cccc(F)c4)[nH]n3)ncnc2c1 [AZD2811] (first compound max 1 µM, 7x7, partner max 1 µM) | -0.0417 | -0.0644 | -0.115 | 0.0112
6 | Cn1cnc2c(F)c(Nc3ccc(Br)cc3Cl)c(C(=O)NOCCO)cc21 [Selumetinib] + CC(C)n1c(=O)n(C)c2cnc3cc(F)c(-c4ccc(OCCCN5CCCCC5)nc4)cc3c21 [AZD1390] (first compound max 10 µM, 7x7, partner max 0.3 µM) | -0.0378 | -0.0521 | -0.0483 | -0.0329
7 | Cc1c2c(nn1C)CSCc1cc(n(C)n1)CSc1cc(c3ccccc3c1)OCCCc1c(C(=O)O)n(C)c3c-2c(Cl)ccc13 [AZD5991] + CN(C)CCCOc1ccc(-c2ccc3ncc4c(c3c2)n(C2CCOCC2)c(=O)n4C)cn1 [AZD0156] (first compound max 1 µM, 7x7, partner max 1 µM) | -0.0039 | 0.0231 | -0.0354 | 0.0527
8 | COc1cccc(OCCCN)c1-c1cc(Nc2cnc(C#N)cn2)n[nH]1 [Prexasertib] + Cc1cc2ncnn2cc1Nc1ncc2c(n1)n(C1CCOCC1)c(=O)n2C [AZD7648] (first compound max 1 µM, 7x7, partner max 10 µM) | -0.0301 | 0.0041 | -0.0005 | -0.0389
9 | Cc1c2c(nn1C)CSCc1cc(n(C)n1)CSc1cc(c3ccccc3c1)OCCCc1c(C(=O)O)n(C)c3c-2c(Cl)ccc13 [AZD5991] + CC1(C)CCC(CN2CCN(c3ccc(C(=O)NS(=O)(=O)c4ccc(NCC5CCOCC5)c([N+](=O)[O-])c4)c(Oc4cnc5[nH]ccc5c4)c3)CC2)=C(c2ccc(Cl)cc2)C1 [Venetoclax] (first compound max 1 µM, 7x7, partner max 1 µM) | -0.0236 | 0.0131 | -0.0118 | -0.0014
10 | Cn1cnc2c(F)c(Nc3ccc(Br)cc3Cl)c(C(=O)NOCCO)cc21 [Selumetinib] + C=CCn1c(=O)c2cnc(Nc3ccc(N4CCN(C)CC4)cc3)nc2n1-c1cccc(C(C)(C)O)n1 [AZD1775] (first compound max 10 µM, partner max 1 µM) | -0.0363 | -0.071 | -0.059 | 0.0099
11 | CC1(C)CCC(CN2CCN(c3ccc(C(=O)NS(=O)(=O)c4ccc(NCC5CCOCC5)c([N+](=O)[O-])c4)c(Oc4cnc5[nH]ccc5c4)c3)CC2)=C(c2ccc(Cl)cc2)C1 [Venetoclax] + Cn1cnc2c(F)c(Nc3ccc(Br)cc3Cl)c(C(=O)NOCCO)cc21 [Selumetinib] (first compound max 1 µM, 7x7, partner max 3 µM) | -0.0238 | -0.01 | -0.0215 | -0.0217
12 | CC1(C)CCC(CN2CCN(c3ccc(C(=O)NS(=O)(=O)c4ccc(NCC5CCOCC5)c([N+](=O)[O-])c4)c(Oc4cnc5[nH]ccc5c4)c3)CC2)=C(c2ccc(Cl)cc2)C1 [Venetoclax] + CCN(CCO)CCCOc1ccc2c(Nc3cc(CC(=O)Nc4cccc(F)c4)[nH]n3)ncnc2c1 [AZD2811] (first compound max 1 µM, 7x7, partner max 1 µM) | 0.0408 | 0.0083 | 0.0172 | -0.0114
13 | C=CCn1c(=O)c2cnc(Nc3ccc(N4CCN(C)CC4)cc3)nc2n1-c1cccc(C(C)(C)O)n1 [AZD1775] + C1CN(CCC1(C(=O)N[C@@H](CCO)C2=CC=C(C=C2)Cl)N)C3=NC=NC4=C3C=CN4 [Capivasertib] (first compound max 3 µM, partner max 3 µM) | -0.0475 | 0.0063 | -0.0028 | 0.0136
14 | C=CCn1c(=O)c2cnc(Nc3ccc(N4CCN(C)CC4)cc3)nc2n1-c1cccc(C(C)(C)O)n1 [AZD1775] + C[C@@H]1COCCN1C2=NC(=NC(=C2)C3(CC3)[S@](=N)(=O)C)C4=C5C=CNC5=NC=C4 [AZD6738] (first compound max 1 µM, partner max 10 µM) | 0.0385 | -0.0022 | 0.0006 | 0.0062
15 | COc1nnc2ccc(N3CCC(c4ccc(OCCN5CCN(C)C(=O)[C@H]5C)cc4)CC3)nn12 [AZD5153] + CC1(C)CCC(CN2CCN(c3ccc(C(=O)NS(=O)(=O)c4ccc(NCC5CCOCC5)c([N+](=O)[O-])c4)c(Oc4cnc5[nH]ccc5c4)c3)CC2)=C(c2ccc(Cl)cc2)C1 [Venetoclax] (first compound max 1 µM, 7x7, partner max 1 µM) | -0.0568 | -0.0515 | -0.0711 | -0.132
16 | C=CCn1c(=O)c2cnc(Nc3ccc(N4CCN(C)CC4)cc3)nc2n1-c1cccc(C(C)(C)O)n1 [AZD1775] + O=C(c1cc(Cc2n[nH]c(=O)c3ccccc23)ccc1F)N1CCN(C(=O)C2CC2)CC1 [Olaparib] (first compound max 1 µM, partner max 10 µM) | -0.0327 | -0.0244 | 0.0441 | -0.0532
17 | COc1nnc2ccc(N3CCC(c4ccc(OCCN5CCN(C)C(=O)[C@H]5C)cc4)CC3)nn12 [AZD5153] + Cn1cnc2c(F)c(Nc3ccc(Br)cc3Cl)c(C(=O)NOCCO)cc21 [Selumetinib] (first compound max 1 µM, 7x7, partner max 10 µM) | -0.0092 | -0.019 | -0.042 | 0.0339
18 | CC1(C)CCC(CN2CCN(c3ccc(C(=O)NS(=O)(=O)c4ccc(NCC5CCOCC5)c([N+](=O)[O-])c4)c(Oc4cnc5[nH]ccc5c4)c3)CC2)=C(c2ccc(Cl)cc2)C1 [Venetoclax] + COc1cc(Nc2ncc3c(n2)-c2ccc(Cl)cc2C(c2c(F)cccc2OC)=NC3)ccc1C(=O)O [Alisertib] (first compound max 1 µM, 7x7, partner max 10 µM) | -0.0449 | -0.0226 | 0.0305 | -0.0361
19 | NC1(C(=O)N[C@@H](CCO)c2ccc(Cl)cc2)CCN(c2ncnc3[nH]ccc23)CC1 [Capivasertib] + C[C@@H]1COCCN1C2=NC(=NC(=C2)C3(CC3)[S@](=N)(=O)C)C4=C5C=CNC5=NC=C4 [AZD6738] (first compound max 10 µM, 7x7, partner max 10 µM) | -0.0402 | -0.066 | -0.0483 | -0.0441
20 | COc1nnc2ccc(N3CCC(c4ccc(OCCN5CCN(C)C(=O)[C@H]5C)cc4)CC3)nn12 [AZD5153] + C=CCn1c(=O)c2cnc(Nc3ccc(N4CCN(C)CC4)cc3)nc2n1-c1cccc(C(C)(C)O)n1 [AZD1775] (first compound max 1 µM, partner max 1 µM) | -0.0997 | -0.022 | -0.0617 | -0.0866
21 | COc1cccc(OCCCN)c1-c1cc(Nc2cnc(C#N)cn2)n[nH]1 [Prexasertib] + C[C@@H]1COCCN1C2=NC(=NC(=C2)C3(CC3)[S@](=N)(=O)C)C4=C5C=CNC5=NC=C4 [AZD6738] (first compound max 1 µM, 7x7, partner max 10 µM) | 0.007 | 0.0255 | 0.0392 | -0.0278
22 | CCN(CCO)CCCOc1ccc2c(Nc3cc(CC(=O)Nc4cccc(F)c4)[nH]n3)ncnc2c1 [AZD2811] + C[C@@H]1COCCN1C2=NC(=NC(=C2)C3(CC3)[S@](=N)(=O)C)C4=C5C=CNC5=NC=C4 [AZD6738] (first compound max 1 µM, 7x7, partner max 10 µM) | -0.0498 | -0.0385 | -0.0123 | -0.0422
23 | CN(C)CCCOc1ccc(-c2ccc3ncc4c(c3c2)n(C2CCOCC2)c(=O)n4C)cn1 [AZD0156] + CCN(CCO)CCCOc1ccc2c(Nc3cc(CC(=O)Nc4cccc(F)c4)[nH]n3)ncnc2c1 [AZD2811] (first compound max 1 µM, 7x7, partner max 1 µM) | 0.0051 | -0.0143 | -0.0201 | -0.0159
24 | CN(C)CCCOc1ccc(-c2ccc3ncc4c(c3c2)n(C2CCOCC2)c(=O)n4C)cn1 [AZD0156] + C=CCn1c(=O)c2cnc(Nc3ccc(N4CCN(C)CC4)cc3)nc2n1-c1cccc(C(C)(C)O)n1 [AZD1775] (first compound max 1 µM, partner max 1 µM) | -0.0242 | -0.0787 | -0.0131 | -0.0593
25 | COc1cccc(OCCCN)c1-c1cc(Nc2cnc(C#N)cn2)n[nH]1 [Prexasertib] + C=CCn1c(=O)c2cnc(Nc3ccc(N4CCN(C)CC4)cc3)nc2n1-c1cccc(C(C)(C)O)n1 [AZD1775] (first compound max 1 µM, partner max 1 µM) | 0.11 | 0.0017 | 0.143 | 0.0382
26 | Cc1c2c(nn1C)CSCc1cc(n(C)n1)CSc1cc(c3ccccc3c1)OCCCc1c(C(=O)O)n(C)c3c-2c(Cl)ccc13 [AZD5991] + C[C@@H](Nc1cc(F)cc(F)c1)c1cc(C(=O)N(C)C)cc2c(=O)cc(N3CCOCC3)oc12 [AZD8186] (first compound max 1 µM, 7x7, partner max 3 µM) | 0.0023 | -0.0244 | 0.0196 | -0.0023
27 | COc1cccc(OCCCN)c1-c1cc(Nc2cnc(C#N)cn2)n[nH]1 [Prexasertib] + O=C(c1cc(Cc2n[nH]c(=O)c3ccccc23)ccc1F)N1CCN(C(=O)C2CC2)CC1 [Olaparib] (first compound max 1 µM, 7x7, partner max 10 µM) | -0.0098 | -0.0511 | -0.0491 | -0.0442
